Experimental data published in patent publication US8362022B2, “Selective subtype alpha 2 adrenergic agents and methods for use thereof” (Allergan, Inc., priority 2008, dated 2013).

Experiments:
Assay type in all cases: cell-based
[1] = biological target: T1, Alpha 1A (Homo sapiens, UniProt P35348); experiment: RSAT assay (Receptor Selection and Amplification Technology), Alpha 1A; settings: value in parentheses, ratio of maximal effect of drug to maximal effect of standard full agonist
T1 sequence (P35348 1-466): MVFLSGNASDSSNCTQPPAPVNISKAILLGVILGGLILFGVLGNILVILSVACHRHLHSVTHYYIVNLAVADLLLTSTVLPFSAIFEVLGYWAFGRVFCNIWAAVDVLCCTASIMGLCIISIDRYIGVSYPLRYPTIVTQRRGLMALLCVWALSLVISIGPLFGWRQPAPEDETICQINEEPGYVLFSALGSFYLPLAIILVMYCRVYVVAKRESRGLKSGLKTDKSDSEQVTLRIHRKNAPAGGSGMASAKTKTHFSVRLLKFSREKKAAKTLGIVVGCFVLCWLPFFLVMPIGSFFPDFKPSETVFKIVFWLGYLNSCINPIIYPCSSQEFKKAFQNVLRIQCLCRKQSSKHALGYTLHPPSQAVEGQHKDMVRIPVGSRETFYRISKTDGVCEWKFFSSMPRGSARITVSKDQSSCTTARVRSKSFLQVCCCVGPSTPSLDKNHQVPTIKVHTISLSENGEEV
Protocol: (§1) The RSAT assay measures a receptor-mediated loss of contact inhibition that results in selective proliferation of receptor-containing cells in a mixed population of confluent cells. The increase in cell number is assessed with an appropriate transfected marker gene such as β-galactosidase, the activity of which can be easily measured in a 96-well format. Receptors that activate the G protein, Gq, elicit this response. Alpha 2 receptors, which normally couple to Gi, activate the RSAT response when coexpressed with a hybrid Gq protein that has a Gi receptor recognition domain, called Gq/i5.
(§2) NIH-3T3 cells are plated at a density of 2×10^6 cells in 15 cm dishes and maintained in Dulbecco's modified Eagle's medium supplemented with 10% calf serum. One day later, cells are cotransfected by calcium phosphate precipitation with mammalian expression plasmids encoding p-SV-β-galactosidase (5-10 μg), receptor (1-2 μg) and G protein (1-2 μg). 40 μg salmon sperm DNA may also be included in the transfection mixture. […] Cells are thawed and 100 μl added to 100 μL aliquots of various concentrations of drugs in triplicate in 96-well dishes. Incubations continue 72-96 hr at 37° C. After washing with phosphate-buffered saline, β-galactosidase enzyme activity is determined by adding 200 μL of the chromogenic substrate (consisting of 3.5 mM o-nitrophenyl-β-D-galactopyranoside and 0.5% nonidet P-40 in phosphate buffered saline), incubating overnight at 30° C. and measuring optical density at 420 nm. The absorbance is a measure of enzyme activity, which depends on cell number and reflects a receptor-mediated cell proliferation. The efficacy or intrinsic activity is calculated as a ratio of the maximal effect of the drug to the maximal effect of a standard full agonist for each receptor subtype. Brimonidine, the chemical structure of which is shown below, is used as the standard agonist for the alpha 2B and alpha 2C receptors. […] NA stands for “not active” at concentrations less than 3-10 micromolar.

[2] = biological target: T2, alpha 2B receptor (Homo sapiens, UniProt P18089); experiment: RSAT assay (Receptor Selection and Amplification Technology), Alpha 2B; settings: RSAT, Table 1
T2 construct: expressed in transfected cells; host or cells: NIH-3T3
T2 sequence (P18089 1-450): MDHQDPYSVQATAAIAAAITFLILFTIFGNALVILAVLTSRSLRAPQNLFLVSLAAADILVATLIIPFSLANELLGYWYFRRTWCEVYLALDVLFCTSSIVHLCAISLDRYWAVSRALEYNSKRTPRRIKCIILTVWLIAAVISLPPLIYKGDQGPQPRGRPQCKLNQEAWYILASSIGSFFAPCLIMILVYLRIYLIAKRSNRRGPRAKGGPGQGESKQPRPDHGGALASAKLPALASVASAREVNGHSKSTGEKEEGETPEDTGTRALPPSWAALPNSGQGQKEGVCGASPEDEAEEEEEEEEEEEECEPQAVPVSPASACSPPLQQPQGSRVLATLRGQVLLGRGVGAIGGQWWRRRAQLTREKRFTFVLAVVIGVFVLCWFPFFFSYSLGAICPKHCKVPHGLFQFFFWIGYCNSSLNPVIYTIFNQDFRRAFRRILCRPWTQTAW
Protocol: as §1, §2

[3] = biological target: T3, alpha 2C receptor (Homo sapiens, UniProt P18825); experiment: RSAT assay (Receptor Selection and Amplification Technology), Alpha 2C; settings: RSAT
T3 construct: expressed in transfected cells; host or cells: NIH-3T3
T3 sequence (P18825 1-462): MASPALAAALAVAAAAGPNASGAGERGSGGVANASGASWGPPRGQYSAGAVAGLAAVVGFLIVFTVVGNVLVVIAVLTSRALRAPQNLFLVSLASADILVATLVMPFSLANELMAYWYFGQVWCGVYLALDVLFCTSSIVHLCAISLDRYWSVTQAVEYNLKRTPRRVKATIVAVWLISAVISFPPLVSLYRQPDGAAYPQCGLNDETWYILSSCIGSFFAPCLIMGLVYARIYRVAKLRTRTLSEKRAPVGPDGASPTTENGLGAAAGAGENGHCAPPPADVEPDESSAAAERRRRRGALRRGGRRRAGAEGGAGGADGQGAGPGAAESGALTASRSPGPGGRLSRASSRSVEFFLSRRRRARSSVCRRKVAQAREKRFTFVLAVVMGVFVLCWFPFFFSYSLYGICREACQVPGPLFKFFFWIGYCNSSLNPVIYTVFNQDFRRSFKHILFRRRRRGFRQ
Protocol: as §1, §2

[4] = value in parentheses, ratio of maximal effect to that of brimonidine

Cc1cccc(C(Cc2cccnc2)/N=C2/NCCO2)c1C (centres unmarked) [Compound 21, 1-(2,3-Dimethylphenyl)-N-(oxazolidin-2-ylidene)-2-(pyridin-3-yl)ethanamine]
Intrinsic Activity efficacy Alpha 1A [1]: 0.6 | EC50 ([2]; transfected NIH-3T3 cells with Gq/i5, read-out: potency nM (EC50) Alpha 2B): 5 nM | Intrinsic Activity efficacy Alpha 2B [2, 4]: 1.2 | EC50 ([3]; transfected NIH-3T3 cells with Gq/i5, NA = not active at concentrations less than 10 micromolar, read-out: potency nM (EC50) Alpha 2C): 18 nM | Intrinsic Activity efficacy Alpha 2C [3, 4]: 0.4
